Assay results taken from article PMC8237267 (Journal of Medicinal Chemistry, 2021).
Entries after “also recorded” stand apart in the source; their conditions may differ.

Legend:
[1] = molecular target: T1, HDAC6 (Homo sapiens, UniProt Q9UBN7); assay: Time-dependent IC50 assay with preincubation (0-6 h); type: biochemical; details: 6 h time-dependent assay
T1 sequence (Q9UBN7 1-1215): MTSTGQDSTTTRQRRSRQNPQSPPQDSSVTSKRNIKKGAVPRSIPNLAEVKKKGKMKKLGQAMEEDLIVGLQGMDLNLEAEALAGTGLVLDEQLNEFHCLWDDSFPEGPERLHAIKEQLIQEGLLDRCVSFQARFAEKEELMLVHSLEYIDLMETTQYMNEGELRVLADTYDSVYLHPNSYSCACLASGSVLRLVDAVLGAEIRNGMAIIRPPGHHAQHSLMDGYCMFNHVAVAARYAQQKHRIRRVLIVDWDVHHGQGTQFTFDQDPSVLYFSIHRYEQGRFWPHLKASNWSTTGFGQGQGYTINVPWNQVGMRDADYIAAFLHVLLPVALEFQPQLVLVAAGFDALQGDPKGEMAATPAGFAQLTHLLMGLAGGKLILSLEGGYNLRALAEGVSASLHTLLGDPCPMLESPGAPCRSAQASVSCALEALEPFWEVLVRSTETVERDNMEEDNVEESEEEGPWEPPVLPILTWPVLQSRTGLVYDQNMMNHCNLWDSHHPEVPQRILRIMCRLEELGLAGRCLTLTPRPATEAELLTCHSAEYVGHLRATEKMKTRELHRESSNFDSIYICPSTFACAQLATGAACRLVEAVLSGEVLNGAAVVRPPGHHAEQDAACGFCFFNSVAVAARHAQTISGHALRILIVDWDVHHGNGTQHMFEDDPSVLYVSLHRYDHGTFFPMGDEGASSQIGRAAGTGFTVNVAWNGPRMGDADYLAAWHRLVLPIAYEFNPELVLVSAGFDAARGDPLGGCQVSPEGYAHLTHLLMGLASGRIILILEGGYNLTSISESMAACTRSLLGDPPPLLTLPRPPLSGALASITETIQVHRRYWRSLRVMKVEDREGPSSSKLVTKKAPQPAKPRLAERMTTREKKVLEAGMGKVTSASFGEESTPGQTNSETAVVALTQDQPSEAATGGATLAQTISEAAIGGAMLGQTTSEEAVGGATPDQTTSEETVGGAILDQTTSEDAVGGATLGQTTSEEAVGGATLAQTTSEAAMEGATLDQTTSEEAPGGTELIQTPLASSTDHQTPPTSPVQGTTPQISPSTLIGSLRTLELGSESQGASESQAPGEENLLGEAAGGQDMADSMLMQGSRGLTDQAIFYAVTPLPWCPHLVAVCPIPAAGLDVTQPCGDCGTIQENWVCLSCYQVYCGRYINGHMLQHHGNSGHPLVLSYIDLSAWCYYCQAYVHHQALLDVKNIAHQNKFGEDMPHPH
Procedure: The binding kinetics profile of KT-531 was also investigated by determining the association (kon)/dissociation (koff) rates as well as residence time parameters. The in vitro residence time (1/kobs) for the KT-531–HDAC6 complex was determined to be 23.18 min, as compared to 10.72 min for 1.

[2] = molecular target: T2, HDAC3 (Homo sapiens, UniProt O15379); assay: HDAC EMSA activity assay (Nanosyn); type: biochemical; details: read-out: IC50 HDAC3
T2 construct: The full-length human HDACs were recombinantly expressed and purified from SF9 insect cells; host or cells: SF9 insect cells

[3] = test system: CD-1 mice; assay: Maximum tolerated dose / 5 day toxicity study; type: in vivo; details: 20 mg/kg P.O., daily for 5 days, listed as KT-531, 20 mg/kg
Procedure: Acute toxicity of the lead inhibitors was studied using 4–12 week old male CD-1 mice (Charles River). A concentration of 20 mg/kg of inhibitor via oral gavage was administered to mice (n = 5) over 5 days. The vehicle consisted of 10% DMSO, 5% Cremophor EL, and 85% saline. Mice were monitored daily for toxicity effects including excessive changes in weight and hair as well as changes to posture and inactivity. All mouse studies were approved by the Local Animal Care Committee at the University of Toronto and Office of Laboratory Animal Welfare (OLAW). The mice were housed in Tecniplast Blueline ventilated cages with environmental enrichment and fed a Teklad 2019 diet supplemented with municipal water.

[4] = molecular target: T1, HDAC6; assay: HDAC EMSA activity assay (Nanosyn); type: biochemical; set-up: The full-length human HDACs were recombinantly expressed and purified from SF9 insect cells; host or cells: SF9 insect cells; details: EMSA (Nanosyn); read-out: IC50 HDAC6
[5] = test system: cleavage of PARP-1 and Caspase-3; assay: Western blot of apoptosis markers in MV4-11 cells; type: cell-based; details: MV4-11, 6 h, 0.5 μM
Procedure: (§1) Briefly, MV4-11 cells were incubated with inhibitors prior to cell lysis with radioimmunoprecipitation assay (RIPA) buffer (20 mM Tris pH 7.4, 150 mM NaCl, 0.5% deoxycholate, 1% Triton X-100, and 0.1% sodium dodecyl sulfate (SDS)). Total protein content was determined through a BCA assay (ThermoFisher), resolved via a 4–20% polyacrylamide SDS gel, and transferred to a nitrocellulose membrane (Bio-Rad). The membranes were blocked with a 5% solution (skimmed milk powder in PBS-T). This was followed by incubation at 4 °C (overnight) with the following antibodies: acetylated α-tubulin mouse monoclonal (MABT868, EMD Millipore), acetylated histone H3 (Ac-Lys18, 07–354, Sigma), PARP-1 (ab227244, Abcam), apoptosis Western blot cocktail (136812, Abcam), cleaved PARP-1 (ab32561, Abcam), and HSC70 (sc-7298, Santa Cruz). Following overnight incubation, horseradish peroxidase (HRP)-conjugated goat anti-mouse IgG secondary antibody (7076, Cell Signaling) or HRP-linked anti-rabbit IgG secondary antibody (7074, Cell Signaling) was applied to the membrane in a 1:5000 dilution. The bands were visualized using clarity Western ECL substrate luminal/enhancer solution and peroxide solution. Western blotting analysis was carried out using Image lab software (Bio-Rad).[47],[50],[70]

[6] = molecular target: T3, HDAC8 (Homo sapiens, UniProt Q9BY41); assay: HDAC EMSA activity assay (Nanosyn); type: biochemical; details: EMSA (Nanosyn); read-out: IC50 HDAC8
T3 construct: The full-length human HDACs were recombinantly expressed and purified from SF9 insect cells; host or cells: SF9 insect cells
T3 sequence (Q9BY41 1-377): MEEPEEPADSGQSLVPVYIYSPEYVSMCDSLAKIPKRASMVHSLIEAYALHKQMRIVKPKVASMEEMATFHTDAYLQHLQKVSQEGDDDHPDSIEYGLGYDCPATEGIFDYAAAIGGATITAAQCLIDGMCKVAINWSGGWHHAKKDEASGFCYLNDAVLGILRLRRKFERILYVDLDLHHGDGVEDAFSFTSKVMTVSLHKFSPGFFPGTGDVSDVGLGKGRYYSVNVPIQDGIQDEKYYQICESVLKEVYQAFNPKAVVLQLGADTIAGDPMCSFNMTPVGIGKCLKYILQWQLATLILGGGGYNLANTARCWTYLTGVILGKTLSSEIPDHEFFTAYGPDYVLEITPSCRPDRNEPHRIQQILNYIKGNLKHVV

[7] = test system: acetylated α-tubulin; assay: Western blot in MV4-11 cells; type: cell-based; details: MV4-11, 6 h, higher inhibitor concentrations
Procedure: as §1

T2 sequence (O15379 whole entry): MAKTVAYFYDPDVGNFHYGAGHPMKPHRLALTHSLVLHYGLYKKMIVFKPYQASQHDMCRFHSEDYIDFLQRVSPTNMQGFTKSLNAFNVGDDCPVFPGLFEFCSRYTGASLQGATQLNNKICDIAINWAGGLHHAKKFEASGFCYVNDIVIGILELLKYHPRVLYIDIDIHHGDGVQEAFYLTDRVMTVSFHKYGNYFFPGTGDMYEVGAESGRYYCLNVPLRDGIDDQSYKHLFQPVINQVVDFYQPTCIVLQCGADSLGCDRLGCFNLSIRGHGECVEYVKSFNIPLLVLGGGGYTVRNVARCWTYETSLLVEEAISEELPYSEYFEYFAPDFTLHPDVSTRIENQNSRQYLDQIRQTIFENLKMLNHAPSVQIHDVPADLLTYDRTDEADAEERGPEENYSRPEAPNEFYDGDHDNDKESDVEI
T2 sequence (Q9Y618 395-489 partner limits assumed): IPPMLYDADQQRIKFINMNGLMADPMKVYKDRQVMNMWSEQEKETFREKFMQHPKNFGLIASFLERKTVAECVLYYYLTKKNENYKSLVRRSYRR

For `O=C(NO)c1ccc(CN(C2CC2)S(=O)(=O)c2cc(F)c(F)c(F)c2F)cc1` [Compound 14, 4-(((N-Cyclopropyl-2,3,4,5-tetrafluorophenyl)sulfonamido)methyl)-N-hydroxybenzamide], the “reversibility of binding (IC50 over preincubation time)” value [1] was “unchanged IC50 values”, the IC50 [2] was over 1 µM and the “in vivo toxicity” value [3] was “no visible signs of toxicity or weight loss; also recorded: no observable toxicity in vivo”. For the same molecule, the IC50 [4] was 0.0085 µM, the “cleavage of PARP-1 and Caspase-3” value [5] was “Cleavage of PARP-1 and Caspase-3” and the IC50 [6] was 0.334 µM. For the same molecule, the “acetylated α-tubulin levels (Western blot)” value [7] was “comparable between citarinostat and KT-531”.
